Results on 14 compounds are retold here after PubChem BioAssay (NCI).

Among the test systems are EKVX NSCLC; LOX IMVI melanoma; MALME-3M melanoma; MCF7 breast; NCI/ADR-RES ovarian; OVCAR-8 ovarian; SF-539 CNS; SK-MEL-5 melanoma; SNB-19 CNS; SNB-75 CNS.
What all share (assay): NCI anticancer screen, dose series, 48 h

Values joined by “and” are separate entries in the source; they are usually repeats but may differ in a detail not shown here. Identical values can stand only once.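 Protocol summary: plate cells (96-well), add compound at 5 concentrations, incubate 48 h, interpolate endpoints linearly. TGI marks complete inhibition of growth.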

For the compound `Cc1ccc(N=Nc2c(O)ccc3cc(S(=O)(=O)O)ccc23)cc1`, the TGI is above 100 µM in the experiment on EKVX NSCLC; > 100 µM and 38.2 µM in the experiment on LOX IMVI melanoma; above 100 µM in the experiment with MALME-3M melanoma; above 100 µM in the experiment with MCF7 breast; above 100 µM in the experiment with NCI/ADR-RES ovarian; above 100 µM in the experiment on OVCAR-8 ovarian. The TGI in the experiment on SF-539 CNS, with SK-MEL-5 melanoma, in the experiment with SNB-19 CNS and in the experiment with SNB-75 CNS was above 100 µM throughout.
In the case of `O=C(OC1CN2CCC1CC2)N(c1ccccc1)c1ccccc1` (stereo not given), the TGI in the experiment with EKVX NSCLC, with LOX IMVI melanoma, in the experiment on MALME-3M melanoma, in the experiment on MCF7 breast, in the experiment with NCI/ADR-RES ovarian and with OVCAR-8 ovarian was above 100 µM in each case. In addition, the TGI in the experiment on SF-539 CNS, in the experiment on SK-MEL-5 melanoma, in the experiment on SNB-19 CNS and in the experiment on SNB-75 CNS was above 100 µM throughout.
On to `CN(O)C(=O)CCCC(=O)NCC(C)(C)CNC(=O)CCCC(=O)N(C)O`, for which the TGI with EKVX NSCLC, in the experiment with LOX IMVI melanoma, with MALME-3M melanoma, in the experiment on MCF7 breast, in the experiment with NCI/ADR-RES ovarian and with OVCAR-8 ovarian was above 100 µM each time. Further, the TGI in the experiment with SF-539 CNS, in the experiment with SK-MEL-5 melanoma, in the experiment with SNB-19 CNS and in the experiment on SNB-75 CNS was above 100 µM in each case.
`CN1CCc2c(sc3ncn(Nc4ccc(Cl)cc4)c(=N)c23)C1`: the TGI with EKVX NSCLC, in the experiment on LOX IMVI melanoma, in the experiment on MALME-3M melanoma, in the experiment on MCF7 breast, in the experiment on NCI/ADR-RES ovarian and in the experiment with OVCAR-8 ovarian was above 100 µM in each case. The TGI with SF-539 CNS, with SK-MEL-5 melanoma, in the experiment with SNB-19 CNS and in the experiment on SNB-75 CNS was above 100 µM each time.
Regarding `S=c1nc(N/N=C/c2cccs2)c2cn[nH]c2[nH]1`, the TGI with EKVX NSCLC is above 100 µM; in the experiment with LOX IMVI melanoma it was 74.6 µM; with MALME-3M melanoma, above 100 µM; in the experiment on MCF7 breast it was 28.3 µM; in the experiment on NCI/ADR-RES ovarian it was 81.7 µM; with OVCAR-8 ovarian it was above 100 µM. The TGI in the experiment on SF-539 CNS, in the experiment with SK-MEL-5 melanoma, in the experiment on SNB-19 CNS and in the experiment on SNB-75 CNS was above 100 µM each time.
For the compound `CCN(CC)c1ccc(/C=C2\CCc3ccc([N+](=O)[O-])cc3C2=O)cc1`, the TGI is above 100 µM in the experiment with EKVX NSCLC; above 100 µM in the experiment with LOX IMVI melanoma; above 100 µM in the experiment on MALME-3M melanoma; above 100 µM with MCF7 breast; above 30.7 µM in the experiment on NCI/ADR-RES ovarian; above 100 µM in the experiment with OVCAR-8 ovarian. The TGI in the experiment on SF-539 CNS was 7.09 µM; in the experiment with SK-MEL-5 melanoma, above 100 µM; in the experiment with SNB-19 CNS, above 30.1 µM; in the experiment with SNB-75 CNS it was 24.3 µM.
In the case of `COc1cccc2cc(C(=O)Nc3ccccc3)c(=N)oc12`, the TGI in the experiment on EKVX NSCLC, in the experiment on LOX IMVI melanoma, in the experiment with MALME-3M melanoma, in the experiment on MCF7 breast, in the experiment on NCI/ADR-RES ovarian and in the experiment on OVCAR-8 ovarian was above 100 µM throughout. In addition, the TGI in the experiment with SF-539 CNS was above 100 µM; in the experiment with SK-MEL-5 melanoma it was above 100 µM; in the experiment with SNB-19 CNS, above 100 µM; with SNB-75 CNS, above 87.9 µM.
For `O=[N+]([O-])c1cc(F)ccc1S(=O)(=O)c1ccccc1`, the TGI with EKVX NSCLC, with LOX IMVI melanoma, with MALME-3M melanoma, in the experiment on MCF7 breast, in the experiment with NCI/ADR-RES ovarian and in the experiment with OVCAR-8 ovarian was above 10 µM throughout. Besides, the TGI in the experiment with SF-539 CNS, with SK-MEL-5 melanoma, with SNB-19 CNS and with SNB-75 CNS was above 10 µM throughout.
Turning to `COc1ccc(-c2ncn(C[Si](C)(C)C)c2-c2ccc(OC)cc2)cc1`, the TGI is 12.1 µM in the experiment on EKVX NSCLC; 21 µM in the experiment on LOX IMVI melanoma; 23.7 µM in the experiment with MALME-3M melanoma; 31.1 µM in the experiment on MCF7 breast; 29.1 µM with NCI/ADR-RES ovarian; 31.4 µM in the experiment with OVCAR-8 ovarian. Further, the TGI with SF-539 CNS was 27.5 µM; in the experiment with SK-MEL-5 melanoma, 10.2 µM; in the experiment on SNB-19 CNS, 26.2 µM; in the experiment on SNB-75 CNS, 28.3 µM.
For the compound `O=C(N/N=C\c1cccc2ccccc12)Nc1cccc2ccccc12`, the TGI in the experiment with EKVX NSCLC, with LOX IMVI melanoma, in the experiment on MALME-3M melanoma, with MCF7 breast, in the experiment with NCI/ADR-RES ovarian and in the experiment on OVCAR-8 ovarian was above 100 µM throughout. Moreover, the TGI in the experiment on SF-539 CNS is 42.1 µM; in the experiment with SK-MEL-5 melanoma, above 100 µM; in the experiment with SNB-19 CNS, 48.9 µM; in the experiment on SNB-75 CNS, 35.2 µM.
Regarding `O=c1[nH]c2nccn2c2c1SCCN2`, the TGI with EKVX NSCLC, in the experiment with LOX IMVI melanoma, with MALME-3M melanoma, in the experiment with MCF7 breast, with NCI/ADR-RES ovarian and in the experiment on OVCAR-8 ovarian was above 100 µM in each case. The TGI in the experiment with SF-539 CNS, in the experiment on SK-MEL-5 melanoma, in the experiment with SNB-19 CNS and with SNB-75 CNS was above 100 µM in each case.
Consider `CC(C)C(=O)/C=C/S/C=C/C(=O)C(C)C`, for which the TGI was 90.9 µM in the experiment on EKVX NSCLC; 11.1 µM in the experiment with LOX IMVI melanoma; 25.6 µM with MALME-3M melanoma; above 100 µM in the experiment on MCF7 breast; 9.63 µM with NCI/ADR-RES ovarian; 6.48 µM in the experiment with OVCAR-8 ovarian. Also, the TGI in the experiment with SF-539 CNS was 60.2 µM; in the experiment with SK-MEL-5 melanoma, 21.7 µM; in the experiment on SNB-19 CNS, above 100 µM; in the experiment on SNB-75 CNS it was above 100 µM.
For the compound `CNC(=O)SCC(NC(=O)CCC(N)C(=O)O)C(=O)NCC(=O)O` (stereo not given), the TGI in the experiment on EKVX NSCLC, in the experiment on LOX IMVI melanoma, in the experiment on MALME-3M melanoma, in the experiment on MCF7 breast, in the experiment on NCI/ADR-RES ovarian and with OVCAR-8 ovarian was above 100 µM throughout. Also, the TGI with SF-539 CNS, with SK-MEL-5 melanoma, in the experiment on SNB-19 CNS and with SNB-75 CNS was above 100 µM throughout.
On to `CCCCc1ccc(Nc2nc(Cl)c3ccn(C4CC(Oc5ccc(C)cc5)C(COc5ccc(C)cc5)O4)c3n2)cc1` (stereo not given), for which the TGI in the experiment with EKVX NSCLC is 38 µM; with LOX IMVI melanoma, above 46.4 µM; in the experiment on MALME-3M melanoma it was 32.9 µM; in the experiment with MCF7 breast, above 46.4 µM; with NCI/ADR-RES ovarian, above 46.4 µM; in the experiment on OVCAR-8 ovarian it was above 46.4 µM. Further, the TGI in the experiment with SF-539 CNS was above 46.4 µM; in the experiment with SK-MEL-5 melanoma, above 46.4 µM; in the experiment on SNB-19 CNS, 31.8 µM; in the experiment on SNB-75 CNS, above 100 µM.
